Where two headings read alike, the source gives them in different places.
Legend:
[1] = Population pharmacokinetic analysis of apixaban; type: in vivo, human; conditions: for CL renal: male, human, plasma, oral
[2] = Simulation of apixaban steady-state exposure in VTE treatment population; set-up: species or system human
[3] = Exploratory exposure-response evaluation for bleeding and efficacy endpoints; type: in vivo, human
[4] = cited from earlier work; for increase in apixaban exposure: phase I study, regression analysis
[5] = system: cytochrome P450 3A4 (CYP3A4); conditions: minor contributions from CYP1A2, 2C8, 2C9, 2C19, 2J2; cited from earlier work
[6] = cited from earlier work
[7] = among 522 subjects from the acute VTE treatment studies

COc1ccc(-n2nc(C(N)=O)c3c2C(=O)N(c2ccc(N4CCCCC4=O)cc2)CC3)cc1 [apixaban, Apixaban]
reduction in Vc/F vs 85 kg reference subject ([1]; 50-kg subject): 24% | increase in Vc/F vs 85 kg reference subject ([1]; 120-kg subject): 20% | impact on apixaban exposure ([1]; age, sex, Asian race (also strong or moderate CYP3A4/P-gp inhibitors)): less than 25% | increase in AUC expected in severe renal impairment ([1]; expected from 27% renal contribution, renal clearance close to zero): ~40% | Asian subjects effect on CL/F (covariate parameter, fractional change) ([1]; final model): −0.168 | Female effect on CLNR/F (covariate parameter, fractional change) ([1]; final model): −0.223 | IIV (interindividual variability, CV%) of CL/F ([1]; final model): 33.1% | IIV (interindividual variability, CV%) of ka ([1]; final model): 50.2% | Q/F (apparent intercompartmental clearance) ([1]; final model): 1.62 L/h | Vp/F (apparent volume of peripheral compartment) ([1]; final model): 19.8 L | Vc/F (apparent volume of central compartment) ([1]; final model, reference VTE treatment subject): 32.1 L | ka, an evening dose ([1]; final population PK model, evening dose): 0.239 h⁻¹ | ka ([1]; final population PK model, morning or afternoon dose): 0.440 h⁻¹ | CL renal ([1]; CLNR/F (apparent nonrenal clearance), final model, reference VTE treatment subject): 42 mL/min | CL renal ([1]; CLR/F (apparent renal clearance), final model, reference VTE treatment subject (60 years, non-Asian male, 85 kg, cCrCL 100 mL/min)): 30.5 mL/min | lower daily AUC vs 60-year-old reference subject ([1]; predicted, 40-year-old male, no change in apparent renal clearance): ~6% | higher daily AUC vs 60-year-old reference subject ([1]; predicted, 80-year-old male, no change in apparent renal clearance): 5% | higher AUC compared to non-Asian subjects ([1]; predicted, Asian subjects): 20% | higher AUC than male subjects ([1]; predicted, female subjects): ~15% | higher AUC than reference subject with normal renal function ([1]; predicted, mild renal impairment (cCrCL of 65 mL/min)): ~17% | higher AUC (exposure) than reference subject ([1]; predicted, severe renal impairment (cCrCL of 15 mL/min)): 56% | decrease in CL/F ([1]; severe renal impairment): 36% | predicted median daily AUCss lower than in NVAF subjects ([2]; 5-mg b.i.d., VTE treatment population vs NVAF subjects): about 25% | fluctuation between peak and trough concentrations ([2]; predicted, VTE treatment subjects): ~2 fold | bleeding events (major or clinically relevant nonmajor) ([3]; among 178 subjects from the AMPLIFY-EXT study): eight | VTE/VTE-related death events [3, 7]: five | bleeding events (major or clinically relevant nonmajor) [3, 7]: 25 | half-life [4]: ~12 h | lower CL/F, NVAF subjects compared to phase I subjects [4]: 14% | oral bioavailability [4]: ~50% | renal clearance as share of total systemic clearance [4]: ~27% | volume of distribution from phase I studies [4]: ~21 L | decrease in exposure after coadministration with rifampin ([4]; healthy subjects, strong inducer of CYP3A4 and P-gp): 50% | increase in exposure after coadministration with ketoconazole ([4]; healthy subjects, strong inhibitor of CYP3A4 and P-gp): 2 fold | predicted median daily AUCss in NVAF subjects ([4]; nonvalvular atrial fibrillation subjects, 5 mg b.i.d.): 3,280 ng*hr/mL | exposure higher following coadministration with ketoconazole than apixaban alone ([4]; phase I clinical studies): ~100% | higher AUC, females compared to males ([4]; phase I studies): 15% | higher AUC, older subjects (>=65 years) compared to younger subjects (18-40 years) ([4]; phase I studies): 32% | increase in apixaban exposure ([4]; mild renal impairment): ~16% | increase in apixaban exposure ([4]; moderate renal impairment): ~29% | increase in apixaban exposure ([4]; severe renal impairment): ~44% | metabolism by CYP3A4 [5]: predominantly metabolized | adjudicated major bleeding (primary safety endpoint) vs enoxaparin/warfarin ([6]; AMPLIFY study): statistically superior | number of major bleeding events, apixaban and placebo groups ([6]; AMPLIFY-EXT): low and similar
